Where two headings read alike, the source gives them in different places.

The subject of assay [1] is neurosteroid synthesis. More on the design: method as in PMID 25654303. Particulars: relative to XBD173; cited from earlier work.
The test system of assay [2] is TSPO. More on the design: method as in PMID 25654303. The conditions noted are these: relative to XBD173; cited from earlier work.
Assay [3] deals with T1, TSPO (Rattus norvegicus, UniProt P16257).
T1 construct: Membranes from rat kidneys were prepared as described previously; from tissue; host or cells: rat kidney membranes
The assay is described as follows: Simplified (one-concentration) competition kinetic association assay. Format: binding. Particulars: for dissociation rate of the ligand from TSPO (rapid or slow competitor of [3H]PK11195): shape of [3H]PK11195 association curve, ligand at three-fold Ki; for Kd / koff / kon: unlabeled ligand at three-fold Ki only; for Kd: read-out: Kinetically-derived Kd = Koff/Kon. On the procedure: The unlabeled TSPO ligand kinetic parameters were assessed using the theoretical model of Motulsky and Mahan[32]. Unlike methods in which one compound is pre-equilibrated with the receptor, this approach involves the simultaneous addition of both radioligand and competitor to receptor preparation, so that at t = 0 all receptors are unoccupied. […] The degree of bound to TSPO was assessed at multiple time points by filtration harvesting and liquid scintillation counting, as above described. […] For ‘simplified’ competition kinetic association assays, the experiments were performed using concentration of unlabeled TSPO ligands corresponding to three-fold their Ki.
Association and dissociation rates for unlabeled TSPO ligands were calculated by fitting the data in the competition association model using the ‘kinetics of competitive binding’ assay, defining the amount of radioligand bound to receptor ([RL]) as a function of time[32]: […]

In assay [4] the test system is rat C6 glioma cells. The assay is described as follows: Pregnenolone production in C6 glioma cells (ELISA). Particulars: for Emax at 100 µM / EC50: Rattus norvegicus, 2 h; for Emax at 100 µM: read-out: Emax (at 100 μM) (vehicle set to 100%); for EC50: read-out: EC50 (pregnenolone production); for steroidogenic efficacy, ranking in words: among all tested TSPO ligands. Format: cell-based. A general note: ELISA stands for enzyme-linked immunosorbent assay.

Assay [5] addresses T1, TSPO. The assay is described as follows: [3H]PK11195 binding displacement assay, rat kidney membranes. The conditions noted are these: read-out: Equilibrium Ki. On the procedure:
(§1) Membranes from rat kidneys were prepared as described previously. All the experimental procedures were carried out following the guidelines of the European Community Council Directive 86–609 and have been approved by the Committee for animal experimentation of the University of Pisa. The resulting membrane pellets were aliquoted and frozen at –20 °C. For all radioligand binding assays, an aliquot of membranes was thawed, suspended in assay buffer (AB, Tris-HCl 50 mM, pH 7.4) and homogenized using Ultraturrax. In cell membrane homogenate, protein content was measured by the Bradford method[52] using the Bio-Rad Protein Assay reagent.
(§2) All experiments were analyzed by either linear or non linear regression using Prism 5.0 (GraphPad Software Inc., San Diego, CA). […] Competition displacement binding were fitted to sigmoidal (variable slope) curves.

The test system of assay [6] is rat. The conditions noted are these: cited from earlier work; for anxiolytic activity in EPM test: rat.
Assay [7] concerns human glial cell model. More on the design: method as in PMID 20728278. The conditions noted are these: cited from earlier work.
Assay [8] has as its system GABAA receptor. More on the design: method as in PMID 20728278. The conditions noted are these: conditioned medium of treated glial cells; cited from earlier work.
Assay [9] deals with T1, TSPO. The assay is described as follows: [3H]PK11195 binding saturation assay, rat kidney membranes. Particulars: [3H]PK11195 saturation binding. On the procedure:
as §1, §2

[10] abbreviates: pregnenolone production at 100 μM ligand, C6 cells.
Where [11] appears, read: C6 cells, 0-100 μM ligand, serum-free.
The mark [12] stands for this setting: displacement of 1 nM [3H]PK11195, rat kidney membranes, 0 °C.

As to `CCNC1=Nc2ccc(Cl)cc2C(C)(c2ccccc2)O1` (stereo not shown) [Etifoxine], in [1], the “potency to stimulate neurosteroidogenesis compared with XBD173” value is given as “more potent”. Further, in assay [2], the “binding affinity to TSPO, fold lower than XBD173” value is “approximately 140 fold”.

A word on the Emax: it is the size of the effect at its maximum, as opposed to the concentration needed. What is called EC50 is the concentration giving half of the maximal effect. In general, Ki refers to the equilibrium dissociation constant of an inhibitor or competing ligand from its target. As to `CCCN(CCC)C(=O)C(=O)c1c(-c2ccccc2)[nH]c2ccccc12` [PIGA719], in [3], the “dissociation rate of the ligand from TSPO (rapid or slow competitor of [3H]PK11195)” value (“dissociation rate of the ligand” for short) was “rapid” and the Kd is 11.9 ± 1 nM. The Emax at 100 µM in assay [4] (setting [10]) was found to be 146 ± 2%. Moreover, the EC50 in assay [4] (setting [11]) turned out to be 12900 ± 1500 nM. For the same compound, the inhibition constant Ki in assay [5] (setting [12]) was determined as 12.2 ± 1.1 nM.

Turning to `CCCCCCN(CCCCCC)C(=O)C(=O)c1c(-c2ccccc2)[nH]c2ccccc12` [PIGA720], in assay [3], the “dissociation rate of the ligand” value is “rapid” and the Kd amounted to 1.79 ± 0.24 nM. The Emax at 100 µM in assay [4] (setting [10]) amounted to 144 ± 4%. In [4] (setting [11]), the concentration giving a half-maximal response (EC50) turned out to be 29700 ± 3100 nM. Also, the Ki in assay [5] (setting [12]) was 1.4 ± 0.28 nM.

Usually koff stands for a measure of how fast the partners let go of each other. A higher koff goes with fast dissociation. By kon is commonly meant a measure of how fast the partners come together. Read a high kon as fast association. For the compound `CCCCCCN(CCCCCC)C(=O)C(=O)c1c(-c2ccccc2)[nH]c2ccc(Cl)cc12` [PIGA745], in assay [3], the “dissociation rate of the ligand” value is on record as “rapid”, the koff is 0.000967 s⁻¹, the on-rate constant (kon) was 64000 M⁻¹ s⁻¹ and the Kd was found to be 15.1 ± 1.16 nM. In addition, the Emax at 100 µM in assay [4] (setting [10]) was 140 ± 5%. Moreover, the concentration for a half-maximal effect (EC50) in assay [4] (setting [11]) was 34600 ± 3600 nM. Besides, the Ki in assay [5] came to 13.1 ± 1.16 nM.

For `CCN(Cc1ccccc1)C(=O)C(=O)c1c(-c2ccc(Cl)cc2)[nH]c2ccc(Cl)cc12` [PIGA823], in assay [3], the “dissociation rate of the ligand” value is “slow” and the Kd turned out to be 1.86 ± 0.17 nM. Moreover, the Emax at 100 µM in [4] (setting [10]) was 272 ± 11%. The concentration for a half-maximal effect (EC50) in assay [4] (setting [11]) was 12200 ± 1300 nM. In addition, in assay [4] (C6 cells), the “steroidogenic efficacy, ranking in words” value is “highest efficacy”. Moreover, the “anxiolytic activity in EPM test” value in assay [6] is reported as “significant anxiolytic activity”. Also, the Ki in [5] (setting [12]) amounted to 3.3 ± 0.31 nM.

For the compound `CCCCN(CCCC)C(=O)C(=O)c1c(-c2ccc(Cl)cc2)[nH]c2ccc(Cl)cc12` [PIGA835], in [3], the “dissociation rate of the ligand” value is reported as “rapid”, the koff was 0.000967 s⁻¹, the kon is 963000 M⁻¹ s⁻¹ and the Kd worked out at 1 ± 0.19 nM. Besides, in assay [4] (setting [10]), the Emax at 100 µM came out at 149 ± 4%. The EC50 in [4] (setting [11]) was 25600 ± 2300 nM. Further, the Ki in assay [5] stood at 0.91 ± 0.11 nM.

Turning to `CCCN(CCC)C(=O)C(=O)c1c(-c2ccc(C)cc2)[nH]c2ccccc12` [PIGA839], in assay [3], the “dissociation rate of the ligand” value is given as “slow”, the koff is 0.00015 s⁻¹, the kon is 28200 M⁻¹ s⁻¹ and the Kd was 5.45 ± 0.6 nM. The “allopregnanolone in medium of treated cells” value in assay [7] is recorded as “high levels”. Besides, the maximum response (Emax) at 100 µM in assay [4] (setting [10]) turned out to be 254 ± 5%. The EC50 in assay [4] (setting [11]) was 16300 ± 1400 nM. Moreover, the “steroidogenic efficacy, ranking in words” value in assay [4] (C6 cells) is given as “highest efficacy”. For the same compound, the “anxiolytic activity in EPM test” value in assay [6] was “significant anxiolytic activity”. Besides, the Ki in assay [5] (setting [12]) stood at 5.5 ± 0.47 nM. Besides, in assay [8], the “36Cl- uptake into cerebral cortical synaptoneurosomes” value was “potentiated”.

With `CCCCCCN(CCCCCC)C(=O)C(=O)c1c(-c2ccccc2)[nH]c2ccc([N+](=O)[O-])cc12` [PIGA925], in assay [3], the “dissociation rate of the ligand” value is “rapid”, the off-rate (koff) was 0.00113 s⁻¹, the association rate constant (kon) was 113000 M⁻¹ s⁻¹ and the Kd is 10 ± 1.13 nM. Further, in assay [4] (setting [10]), the Emax at 100 µM worked out at 166 ± 5%. Moreover, the concentration giving a half-maximal response (EC50) in assay [4] (setting [11]) worked out at 9710 ± 1000 nM. In addition, in assay [5], the Ki came to 12.2 ± 3.14 nM.

Regarding `CCCN(CCC)C(=O)C(=O)c1c(-c2ccc3ccccc3c2)[nH]c2ccccc12` [PIGA1128], in assay [3], the “dissociation rate of the ligand” value was “slow”, the koff was 0.0003 s⁻¹, the on-rate (kon) is 1.35e+06 M⁻¹ s⁻¹ and the Kd was found to be 0.22 ± 0.05 nM. In addition, in [4] (setting [10]), the Emax at 100 µM was found to be 179 ± 7%. Moreover, the EC50 in assay [4] (setting [11]) was 26100 ± 1500 nM. The Ki in assay [5] (setting [12]) amounted to 0.31 ± 0.02 nM.

Consider `CCCCCN(C)C(=O)C(=O)c1c(-c2ccc3ccccc3c2)[nH]c2ccccc12` [PIGA1138], for which, in assay [3], the “dissociation rate of the ligand” value was “slow”, the koff was 0.000117 s⁻¹, the kon is 717000 M⁻¹ s⁻¹ and the Kd came out at 0.17 ± 0.03 nM. In addition, the maximal response (Emax) at 100 µM in [4] (setting [10]) came to 275 ± 5%. In assay [4] (setting [11]), the EC50 was determined as 13100 ± 1400 nM. Moreover, the “steroidogenic efficacy, ranking in words” value in assay [4] (C6 cells) is on record as “highest efficacy”. Besides, in assay [5], the inhibition constant (Ki) turned out to be 0.34 ± 0.03 nM.

As for `CCCCCCN(CCCCCC)C(=O)C(=O)c1c(-c2ccc(C(=O)O)cc2)[nH]c2ccccc12` [PIGA1214], in [3], the “dissociation rate of the ligand” value is listed as “rapid” and the Kd amounted to 332 ± 15 nM. Besides, the maximal effect (Emax) at 100 µM in [4] (setting [10]) is 141 ± 4%. Moreover, the EC50 in assay [4] (setting [11]) worked out at 92000 ± 5600 nM. The inhibition constant (Ki) in assay [5] stood at 343 ± 15.9 nM.

For `CCC(C)N(C)C(=O)c1cc2ccccc2c(-c2ccccc2Cl)n1` (stereo not shown) [PK11195, reference compound], in assay [9], the Bmax is 6498 ± 500 fmol/mg of proteins. Moreover, the EC50 in [4] was 19500 ± 1800 nM. Besides, the maximum response (Emax) at 100 µM in [4] (setting [10]) was 153 ± 4%. In addition, the “anxiolytic effect in EPM test” value in assay [6] is recorded as “does not determine anxiolytic effect”.

`CN1C(=O)CN=C(c2ccc(Cl)cc2)c2cc(Cl)ccc21` [Ro5-4864, reference compound]: the “dissociation rate of the ligand” value in assay [3] is on record as “rapid”. In assay [4], the 50% effective concentration (EC50) was 36200 ± 2500 nM and the maximum response (Emax) at 100 µM is 150 ± 4%. In assay [6], the “anxiolytic effect in EPM test” value is “does not determine anxiolytic effect”.

(Values after PMC4707509, “TSPO ligand residence time: a new parameter to predict compound neurosteroidogenic efficacy” (Scientific Reports, 2016).)
